Experimental findings from US20120100609A1, “N-LINKED GLYCAN BIOSYNTHESIS MODULATORS” (priority 2009, published 2012) are described below.

The subject of this experiment is N-linked glycans of CHO cells. Briefly: N-glycan profiling of treated CHO cells by normal phase HPLC (PNGaseF release, 2AB label). Format: cell-based, Chinese Hamster. The conditions noted are these: CHO cells treated with compound, doses in uM. Here is the method: N-linked glycans were purified from CHO cell cultures and different N-linked glycan structural peaks were separated by normal phase HPLC. For the analyses, cultured CHO cells were treated with and without the test compounds as described above and then harvested for N-glycan profiling. The spent medium was decanted and the cells were rinsed 3 times with PBS and detached with 5 mM EDTA/PBS. N-glycans were released from cells using PNGaseF (Prozyme, Cat# GKE-5006) as described by the manufacture. Released glycans were labeled with […] (2AB) (Sigma, Cat# A89804) as described by the manufacture. Non-incorporated 2AB was removed using a Discovery DPA-6S column. Briefly, the column was pre-equilibrated 2× with 1 ml 97% ACN. Samples were loaded by adding 1 ml 97% acetonitrile (ACN) to the reaction mix. The column was washed 4× with 1 ml 97% CAN. 2AB-labeled N-glycans were then eluted 2× with 0.6 ml water, dried in a vacuum centrifuge, resuspended and then analyzed by normal phase HPLC(NP-HPLC). Analogous experiments were run with Castanospermine for comparison. The results are illustrated in FIGS. 23-30. Purified 2AB-N-glycans were separated (NP-HPLC) on a 4.6×250 mm TSK Gel-Amide-80 column (Tosoh Bioscience). A gradient was run from 70% A to 50% A over 40 min at a flow rate of 1.2 ml/min (Solvent A: Acetonitrile, Solvent B: 50 mM ammonium formate pH4.4). Glucose units were determined based on 2AB-labeled glucose oligomer ladder (Prozyme). 2AB-labeled N-glycan standards (Prozyme) were run and assigned glucose units.
For the compound `O[C@H]1[C@H](O)[C@@H](O)CN2CC[C@H](O)[C@H]12` [Castanospermine, reference compound], the “specific N-linked glycan peaks of the HPLC profile (peak areas as % of the untreated Cntr peak area)” value is listed as “N-glycan Profile Changes”.

For the compound `Cc1ccc(NC(=O)c2c(NC(=O)c3cccnc3)sc3c2CCC3)cc1` [compound 10, N-(3-(p-tolylcarbamoyl)-5,6-dihydro-4H-cyclopenta[b]thiophen-2-yl)nicotinamide], the “specific N-linked glycan peaks of the HPLC profile (peak areas as % of the untreated Cntr peak area)” value was “increases and decreases of specific peaks”.

Take `COc1ccc(CN/C=C2\C(=O)N(c3nc4ccccc4s3)N=C2c2ccccc2)cc1` [compound 11]: the “specific N-linked glycan peaks of the HPLC profile (peak areas as % of the untreated Cntr peak area)” value is “increases and decreases of specific peaks”. The value for `CCOc1cc(/C=C(\C#N)c2n[nH]c(N)c2C#N)ccc1O` [compound 12, (Z)-5-amino-3-(1-cyano-2-(3-ethoxy-4-hydroxyphenyl)vinyl)-1H-pyrazole-4-carbonitrile] was “increases and decreases of specific peaks”.
